The subject of the assay is inducible engineered cell. Briefly: Mesenchymal to Epithelial transition (MET) assay (D11), plasticity ratio from E-Cadherin and Vimentin markers. The assay is classed as cell-based. To be noted: 10 mM RA; FIG. 12A; E-Cadherin (AF 647), Vimentin (AF 488); PR with no RA 1.3. The text has this: FIGS. 12A and 12B depict an assay, Mesenchymal to Epithelial transition (MET) (D11), at various concentrations of Retinoic acid (RA) assessing markers E-Cadherin and Vimentin; and RA effect on expression of E-Cadherin and Vimentin in SW480 clone 1C3, respectively, according to embodiments as disclosed herein;
FIGS. 12A and 12B are representations depicting assay for Mesenchymal to Epithelial transition (MET) (D11), at various concentrations of Retinoic acid (RA) measuring markers E-Cadherin and Vimentin; and RA effect on expression of E-Cadherin and Vimentin in SW480 clone 1C3, respectively. […] FIGS. 15A, 15B and 15C are representations depicting assay for Exosome vesicles secretion and uptake (D14), showing standard curve of exosome quantification; exosome secretion in colon cancer cells; and exosome uptake in cell lines.
Mesenchymal to Epithelial transition (MET) is the ability of the tumor cells to change from the moving cellular form, back to the growing cellular form. This is measured by detecting the change in the epithelial and mesenchymal cell markers, once cells are treated with agents promoting MET. […] Flow cytometry is used, along with imaging techniques like fluorescence markers using multiple proteins as markers, including but not limited to E cadherin, Vimentin, N Cadherin, Epcam, CD 133, CD 44, to measure MET. […]

With `CC1=C(/C=C/C(C)=C/C=C/C(C)=C/C(=O)O)C(C)(C)CCC1` [RA, Retinoic acid], the “PR (plasticity ratio, mesenchymal marker Vimentin to epithelial marker E-Cadherin)” value turned out to be 0.56.

The values are drawn from patent US12482566B2, “Systems and methods for predicting cancer metastasis and screening of drugs” (MESTASTOP SOLUTIONS PRIVATE LIMITED, priority 2020, dated 2025).
